In paper PMC4841555, “Optimization of the All-D Peptide D3 for Aβ Oligomer Elimination” (PLoS ONE, 2016) one finds EC50 and Kd data, which are given here for one compound.

As a reminder, the EC50 is the concentration needed to bring the measured effect to its halfway point. The Kd is the concentration at which binding is half-saturated. Low values mean tighter binding, high ones weaker binding.

One experiment has as its target T1, Aβ(1–42) (Homo sapiens, UniProt P05067).
T1 construct: Aβ(1–42), N-terminally biotinylated Aβ(1–42) and FITC-Aβ(1–42) were purchased from Bachem; purchased Bachem (Heidelberg, Germany)
Description: Aβ aggregation inhibition ELISA. The following applies: 400 nM Aβ(1–42), 500 mM Tris pH 7.4, 23 h, 37°C, aggregate-specific ELISA, logistic fit, three independent experiments; read-out: EC50 of inhibition of Aβ aggregate formation. It is filed as biochemical. As for the experimental part: Freshly dissolved monomeric Aβ(1–42) (400 nM in 500 mM Tris-buffer pH 7.4) was incubated with and without DB peptides in different concentrations (0.01, 0.05, 0.1, 0.5, 1, 5, 10, 50 and 100 μM for DB3 or half of the molar concentrations in case of DB3DB3) in a humidity chamber for 23 h at 37°C. The aggregation was analyzed by an enzyme-linked immunosorbent assay (ELISA). NP27 antibody in bicarbonate/carbonate buffer was used to coat the ELISA plate overnight. Then the plate was washed in PBS-Tween buffer (1x PBS + 0.05% Tween) and blocked for 2 h at room temperature with 5% casein buffer. After washing, Aβ aggregate solutions were added to the plate and incubated for 1 h at room temperature. The plate was washed again and bound Aβ aggregates were detected by biotinylated 6E10/HRP-avidin mediated immunoreaction (BioLegend, San Diego, CA USA) using TMB as detection reagent. […] Mean value and standard error were calculated from three independent experiments. EC50 was calculated by fitting the data to a logistic dose response function.
Fig 5 Inhibition of Aβ fibril formation and Aβ aggregation disassemble by DB3 and DB3DB3. A) Monomeric Aβ(1–42) (400 nM) was mixed with different concentrations of DB3 (0.01, 0.05, 0.1, 0.5, 1, 5, 10, 50, 100 μM) and the aggregation state of Aβ was analyzed using an Aβ aggregate specific ELISA. […] All data were determined in triplicate. […]
(In general: ELISA stands for enzyme-linked immunosorbent assay.)

The next experiment has as its target T2, Aβ(1–42) monomers (Homo sapiens, UniProt P05067).
T2 construct: N-terminally biotinylated Aβ(1–42) monomers were immobilized on streptavidin biosensors; purchased Bachem (Heidelberg, Germany)
The experiment is described as follows: Biolayer interferometry (BLI) KD determination. It counts as binding. The following applies: N-terminally biotinylated Aβ(1–42) immobilised on streptavidin biosensors, 20 mM sodium phosphate pH 7.4, steady state, Langmuir 1:1 model, mean ± SD of triplicate. As for the experimental part: BLI experiments were performed using an Octet RED96 instrument (fortéBIO, PALL Life Science, Menlo Park, USA). N-terminally biotinylated Aβ(1–42) was dissolved in HFIP, lyophilized and dissolved in 2 mM aqueous sodium hydroxide (1 mg/ml) in order to destroy any pre-existing aggregates. The Aβ(1–42) solution was neutralized by dilution in running buffer (20 mM sodium phosphate buffer, pH 7.4) to a final concentration of 20 μg/ml and directly immobilized on Super Streptavidin biosensors (SSA) (fortéBIO, PALL Life Science, Menlo Park, USA) to a final depth of 3 nm. Ligand biosensors and reference biosensors were quenched with 20 μg/ml biotin for 7 min.
For KD determinations, the binding of a dilution series of DB3 (200, 100, 50, 25, 12.5, 6.25, 3.125 μM) or DBDB3 (20, 10, 5, 2.5, 1.25, 0.625, 0.3125 μM) was detected in parallel to the ligand biosensors and reference biosensors. A separate buffer cycle was used for double referencing. […]
Fig 4 KD determination of DB3 and DB3DB3 to monomeric Aβ using biolayer interferometry (BLI). N-terminally biotinylated Aβ(1–42) monomers were immobilized on streptavidin biosensors and the binding of DB3 and DB3DB3 was detected. Representative double referenced sensorgrams of a dilution series of DB3 (A) and DB3DB3 (B) are shown, including the equilibrium dissociation constants (KD) as means ± SD of data recorded in triplicate. […]

The target in experiment [1] is T3, preformed Aβ(1–42) aggregates (Homo sapiens, UniProt P05067).
T3 construct: Aβ(1–42), N-terminally biotinylated Aβ(1–42) and FITC-Aβ(1–42) were purchased from Bachem; purchased Bachem (Heidelberg, Germany)
T3 sequence (P05067 672-713 limits assumed): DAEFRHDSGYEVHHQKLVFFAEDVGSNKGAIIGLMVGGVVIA
Description: Aβ aggregate disassembly ELISA. It is filed as biochemical. To be noted: 400 nM Aβ(1–42) preincubated 22 h at 37°C, then with peptide 22 h (24 h) at 37°C, ELISA, triplicate. As for the experimental part:
Freshly dissolved monomeric Aβ(1–42) (400 nM in 500 mM Tris-buffer pH 7.4) was incubated in a humidity chamber for 22 h at 37°C in order to preform Aβ(1–42) aggregates. These preformed aggregates were coincubated with D-peptide in different concentrations (0.01, 0.05, 0.1, 0.5, 1, 5, 10, 50, 100 μM for DB3 or with half of the molar concentrations in case of DB3DB3) for additional 22 h at 37°C. The content of Aβ aggregates was measured and evaluated in the same way as the aggregation inhibition ELISA.
Fig 5 Inhibition of Aβ fibril formation and Aβ aggregation disassemble by DB3 and DB3DB3. A) Monomeric Aβ(1–42) (400 nM) was mixed with different concentrations of DB3 (0.01, 0.05, 0.1, 0.5, 1, 5, 10, 50, 100 μM) and the aggregation state of Aβ was analyzed using an Aβ aggregate specific ELISA. For DB3DB3 half of the molar concentrations compared to DB3 were used. Aβ without DB3 and DB3DB3 addition was taken as control. For DB3 an EC50 of 6 μM was calculated using a logistic fit model. DB3DB3 inhibited the formation of Aβ fibrils more efficiently with an EC50 of 7 nM. B) The disassembly properties of DB3 and DB3DB3 were measured using an Aβ aggregation specific ELISA. Monomeric Aβ(1–42) (400 nM) was preincubated in order to form fibrils and mixed with nine different concentrations of DB3 (0.01, 0.05, 0.1, 0.5, 1, 5, 10, 50, 100 μM). For DB3DB3, the molar concentrations were half those used for DB3. […] DB3DB3 disassembled Aβ aggregates at the lowest concentration […]. Thus, the EC50 could not be determined, but is < 10 nM. All data were determined in triplicate. The Mann-Whitney-U-test was performed for statistical analysis. * p< 0.05; ** p < 0.01; *** p < 0.001
The Aβ aggregate disassembly ELISA was used to analyze the effect of DB3 and DB3DB3 on preformed Aβ aggregates (Fig 5B). […] The Aβ aggregates specific ELISA was used to quantify Aβ aggregates. […] The results of measured Aβ aggregates normalized to the Aβ control were plotted against the peptide concentration. The EC50 was calculated by a logarithmic dose response function.

Non-standard residues stand in square brackets, D forms with d. Residues, ends and D or L forms follow the SMILES beside them.

T1 sequence (P05067 672-713 limits assumed): as above
T2 sequence (P05067 672-713 limits assumed): as above

On to `CC[C@@H](C)[C@@H](NC(=O)[C@H]1CCCN1C(=O)[C@H](N)CCCNC(=N)N)C(=O)N[C@@H](C(=O)N[C@H](CCCNC(=N)N)C(=O)N[C@H](CC(C)C)C(=O)N[C@H](CCCNC(=N)N)C(=O)N[C@@H](C(=O)N[C@H](Cc1c[nH]cn1)C(=O)N[C@H](CCC(N)=O)C(=O)N[C@H](CC(N)=O)C(=O)N[C@H](CCCNC(=N)N)C(N)=O)[C@H](C)O)[C@H](C)O` [DB3] (H-[dR][dP][dI][dT][dR][dL][dR][dT][dH][dQ][dN][dR]-NH2), for which the values for the EC50 (on Aβ(1–42); in experiment [1]) were 6 µM and 2.5 µM, respectively. The Kd at Aβ(1–42) monomers was found to be 74.7 µM.
